The nature of the data set: PAMPA permeability test. The data set is classed as in vitro ADME. How it is done:
This test allows the determination of the compound’s passive diffusion through biological membranes.
Precoated PAMPA Plate System Gentest was obtained from Corning (Tewksbury, MA, USA). Test compounds and caffeine solutions (200 µM) were prepared in a PBS buffer (pH = 7.4) and then added to the PAMPA plate. The plate was incubated at room temperature for 5 h without agitation. Then, 150 µL was aspirated from both acceptor (A) and donor (D) wells and then diluted with a 150 µL internal standard (IS) solution. The concentrations of the tested compounds in wells A and D were estimated using an LC/MS Waters ACQUITY™ TQD system with a TQ detector (Waters, Milford, CT, USA). The values of Pe were estimated according to the exact formulas provided by Corning and previously described in the literature.
4. Absorption – PAMPA permeability test
*Permeability coefficient. Compound is permeable if Pe≥1.5×10-6 cm/s
**CFN = caffeine, well-permeable control
UPLC of Caffeine solution in PBS (pH=7.4) after 5h of incubation: acceptor well
(above), donor well (below). IS – internal standard.
UPLC of PR 68 solution in PBS (pH=7.4) after 5h of incubation: acceptor well (above),
donor well (below). IS – internal standard. […]
(In PAMPA a lipid-coated filter parts donor from acceptor wells.)

Structures are written as SMILES.

Consider `CC1NC(NS(=O)(=O)c2cccc3ccccc23)=Nc2cccc(Cl)c21` (stereo not drawn) [PR 68, N -(5-chloro-4-methyl-3,4-dihydroquinazolin-2-yl)naphthalene-1-sulfonamide], for which, for the setting “PAMPA”, the “membrane retention R” value was determined as 0.65. Moreover, for the setting “PAMPA, PBS pH 7.4, 5 h, room temperature, read-out: PAMPA Pe”, the Papp at 5 h, 200 µM was 1.72 ×10⁻⁶ cm/s. Further, the “PAMPA Pe” value (PBS pH 7.4, 5 h, room temperature) was 1.72 10^−6 cm/s.
